Measured values as given in US20260183350A1, “ANTIBIOTIC-RESISTANT BACTERIA” (priority 2022, published 2026).

Legend:
faecal microbiota [1] = assay: Faecal batch culture with antibiotics promoting CRE colonisation: 16S rRNA gene sequencing and qPCR; type: cell-based, human; conditions: 11 healthy donors, antibiotic at faecal concentration, 24 hours anaerobic
Method: (§1) The inventors performed faecal culture experiments to measure the effects of eight broad-spectrum antibiotics on the faecal microbiota collected from 11 healthy human donors. Faecal culture experiments were performed under anaerobic conditions using a complex gut growth medium that was designed to mimic the nutrients found in the human distal gut (McDonald, J. A. et al. Evaluation of microbial community reproducibility, stability and composition in a human distal gut chemostat model. J. Microbiol. Methods 95, 167-174 (2013)). […] Moon, Y. S., Chung, K. C. & Gill, M. A. Pharmacokinetics of meropenem in animals, healthy volunteers, and patients. Clin Infect Dis 24, S249-S255 (1997). Kager, L., Brismar, B., Malmborg, A. S. & Nord, C. E. Imipenem concentrations in colorectal surgery and impact on the colonic microflora. Antimicrob Agents Chemother 33, 204-8 (1989). Pletz, M. et al. Ertapenem pharmacokinetics and impact on intestinal microflora, in comparison to those of ceftriaxone, after multiple dosing in male and female volunteers. Antimicrob Agents Chemother 48, 3765-72 (2004). Nord, C. E., Brismar, B., Kasholm-Tengve, B. & Tunevall, G. Effect of piperacillin/tazobactam treatment on human bowel microflora. J Antimicrob Chemother 31, 61-5 (1993). […] Antimicrob Agents Chemother 63, 2244 (2019). Pessôa de Menezes e Silva, C H. Elaboration and evaluation of a new screening medium for detection and presumptive identification of extended-spectrum beta-lactamase-producing organisms (ESBL). Braz J Microbiol 31, 271-274 (2000). Brismar, B., Edlund, C., Malmborg, A. S. & Nord, C. […] Antimicrob Agents Chemother 34, 481-3 (1990)). Cultures were incubated anaerobically at 37° C. for 24 hours. Samples were analysed by ^1H-NMR spectroscopy (for nutrient and metabolite profiling) and […] rRNA gene sequencing with 16S rRNA gene qPCR (for bacterial composition and biomass) (McDonald, J. A. K. et a/. Inhibiting Growth of Clostridioides difficile by Restoring Valerate, Produced by the Intestinal Microbiota. Gastroenterology 155, 1495-1507 (2018)).

faecal microbiota [2] = assay: Faecal batch culture with antibiotics promoting CRE colonisation: 1H-NMR of nutrients and metabolites; type: cell-based, human; conditions: 11 healthy donors, antibiotic at faecal concentration, 24 hours anaerobic
Method: as §1
Supernatants were prepared from faeces by vortexing 300 mg of faeces in 900 μl of HPLC-grade water for 10 minutes at 3000 rpm followed by centrifugation at 17,000×g for 10 minutes at 4° C. Supernatants were prepared from faecal culture samples by centrifugation at 17,000×g for 10 minutes at 4° C. Supernatants were frozen at −80° C. until they were ready for analysis.
^1H-NMR spectroscopy was performed as previously described (McDonald, J. A. K. et al. Inhibiting Growth of Clostridioides difficile by Restoring Valerate, Produced by the Intestinal Microbiota. Gastroenterology 155, 1495-1507 (2018)). Briefly, sample supernatants were randomized and defrosted at room temperature for 1 hour. Sample supernatants were then centrifuged for 10 min at 17 000×g and 4° C. The pellet was discarded and 400 μl of supernatant was added to 250 μl NMR buffer (28.85 g Na2HPO4, 5.25 g NaH2PO4, 1 mM TSP, 3 mM NaN3, deuterium oxide to 1 L, pH 7.4). 600 μl of sample was used to fill each 5 mm NMR tube to be loaded into the SampleJet system.
^1H-NMR spectroscopy was performed using the Bruker AVANCE III HD 800 MHz spectrometer (Bruker Bio-Spin, Rheinstetten, Germany). 1D spectra (a standard NOESYGPPR1D pulse sequence (RD-90°-t1-90°-tm-90°-ACQ)) as well as 2D spectra (standard 2D JRESGPPRQF pulse sequence) were acquired. A recycle delay of 4 seconds and mixing time of 100 ms was used. The 90° pulse length was approximately 10 μs and 32 scans were recorded.
NMR spectra were imported into MATLAB r2019b (The Mathworks, USA) using an in-house script. Spectra were aligned and the water (4.6-5 ppm) and TSP (−0.2-0.2 ppm) peaks were cut. Compounds were identified by comparison to spectral databases in Chenomx NMR Suite (Chenomx, Canada). Representative peaks were integrated for quantification of compounds.

| Compound | Change in abundance of bacterial families relative to antibiotic-naive faecal cultures (faecal microbiota [1]) | Change in butyrate concentration in faecal cultures (faecal microbiota [2]) |
| --- | --- | --- |
| piperacillin/tazobactam [TZP] | decreased the abundance of Bifidobacteriaceae and Bacteroidaceae | decreased |
| CO/N=C(\C(=O)N[C@@H]1C(=O)N2C(C(=O)O)=C(COC(C)=O)CS[C@H]12)c1csc(N)n1 [CTX, cefotaxime] | decreased the abundance of Bifidobacteriaceae | increased |
| CO/N=C(\C(=O)N[C@@H]1C(=O)N2C(C(=O)O)=C(CSc3nc(=O)c(=O)[nH]n3C)CS[C@H]12)c1csc(N)n1 [CRO, ceftriaxone] | decreased the abundance of Bifidobacteriaceae | decreased |
| CC(C)(O/N=C(\C(=O)N[C@@H]1C(=O)N2C(C(=O)[O-])=C(C[n+]3ccccc3)CS[C@H]12)c1csc(N)n1)C(=O)O [CAZ, ceftazidime] | decreased the abundance of Bifidobacteriaceae | increased |
